According to US20210037824A1, “HERBICIDAL MIXTURES” (BASF SE, priority 2018, published 2021):

Assays:
Details in all cases: scale 0 to 100
IPOHE = assay: greenhouse post-emergence herbicidal activity, IPOHE; format: in vivo, Ipomoea hederacea
Method: (§1) The seeds of the test plants were sown separately for each species. For the post-emergence treatment, the test plants were grown to a plant height of from 3 to 15 cm, depending on the plant habit, and only then treated with the active compounds which had been suspended or emulsified in water. To this end, the test plants were either sown directly, and grown in the same containers, or they were first grown separately as seedlings and transplanted into the test containers one week prior to treatment. Depending on the species, the plants were kept at 10-25° C. and 20-35° C., respectively. The test period extended over 2 to 4 weeks. During this time, the plants were tended and their response to the individual treatments was evaluated. Evaluation was carried out using a scale from 0 to 100. 100 means no emergence of the plants, or complete destruction of at least the above-ground parts, and 0 means no damage or normal course of growth. A good herbicidal activity is given at values of at least 70, and very good herbicidal activity is given at values of at least 85. […] 22ff., the value E, which is expected if the activity of the individual active compounds is only additive, was calculated. […] If the value found experimentally is higher than the value E calculated according to Colby, a synergistic effect is present.

MATIN = assay: greenhouse pre-emergence herbicidal activity, MATIN; format: in vivo, Matricaria inodora
Source text: as §1, with “pre-emergence” for “post-emergence”, “the” for “the test plants were grown to a plant height of from 3 to 15 cm, depending on the plant habit, and only then treated with the”, “compounds,” for “compounds which had been”, “water, were applied 1 day after sowing by means of finely distributing nozzles. The containers were irrigated gently to promote germination and growth and subsequently covered with transparent plastic hoods until the plants had rooted. This cover caused uniform germination of” for “water. To this end,”, “unless this was adversely affected by” for “were either sown directly, and grown in”, “active compounds.” for “same containers, or they were first grown separately as seedlings and transplanted into the test containers one week prior to treatment.”

GERDI = assay: greenhouse pre-emergence herbicidal activity, GERDI; format: in vivo, Geranium dissecium
Source text: (§2) The seeds of the test plants were sown separately for each species. For the pre-emergence treatment, the active compounds, suspended or emulsified in water, were applied 1 day after sowing by means of finely distributing nozzles. The containers were irrigated gently to promote germination and growth and subsequently covered with transparent plastic hoods until the plants had rooted. This cover caused uniform germination of the test plants unless this was adversely affected by the active compounds. Depending on the species, the plants were kept at 10-25° C. and 20-35° C., respectively. The test period extended over 2 to 4 weeks. During this time, the plants were tended and their response to the individual treatments was evaluated. Evaluation was carried out using a scale from 0 to 100. 100 means no emergence of the plants, or complete destruction of at least the above-ground parts, and 0 means no damage or normal course of growth. A good herbicidal activity is given at values of at least 70, and very good herbicidal activity is given at values of at least 85. Trifludimoxazin was formulated as a 500 g/I suspension concentrate, the compound of formula (I) was formulated as a 50 g/I emulsifiable concentrate and, with addition of the amount of solvent system, introduced into the spray liquor used for applying the active compound. In the examples, the solvent used was water. In the examples below, using the method of S. R. Colby (1967) “Calculating synergistic and antagonistic responses of herbicide combinations”, Weeds 15, p. 22ff., the value E, which is expected if the activity of the individual active compounds is only additive, was calculated. E=X+Y−(X·Y/100) • where • X=percent activity using active compound A at an application rate a; • Y=percent activity using active compound B at an application rate b; • E=expected activity (in %) by A+B at application rates a+b. If the value found experimentally is higher than the value E calculated according to Colby, a synergistic effect is present.

ALOMY = assay: greenhouse pre-emergence herbicidal activity, ALOMY; format: in vivo, Alopercurus myosuroides
Source text: (§3) The seeds of the test plants were sown separately for each species. For the pre-emergence treatment, the active compounds, suspended or emulsified in water, were applied 1 day after sowing by means of finely distributing nozzles. The containers were irrigated gently to promote germination and growth and subsequently covered with transparent plastic hoods until the plants had rooted. This cover caused uniform germination of the test plants unless this was adversely affected by the active compounds. Depending on the species, the plants were kept at 10-25° C. and 20-35° C., respectively. The test period extended over 2 to 4 weeks. During this time, the plants were tended and their response to the individual treatments was evaluated. Evaluation was carried out using a scale from 0 to 100. 100 means no emergence of the plants, or complete destruction of at least the above-ground parts, and 0 means no damage or normal course of growth. A good herbicidal activity is given at values of at least 70, and very good herbicidal activity is given at values of at least 85. […] 22ff., the value E, which is expected if the activity of the individual active compounds is only additive, was calculated. […] If the value found experimentally is higher than the value E calculated according to Colby, a synergistic effect is present.

LAMPU = assay: greenhouse pre-emergence herbicidal activity, LAMPU; format: in vivo, Lamium purpureum
Source text: as §3

POLCO = assay: greenhouse pre-emergence herbicidal activity, POLCO; format: in vivo, Polygonum convolvulus
Source text: as §2

GALAP = assay: greenhouse pre-emergence herbicidal activity, GALAP; format: in vivo, Galium aparine
Source text: as §3

LOLMU = assay: greenhouse pre-emergence herbicidal activity, LOLMU; format: in vivo, Lolium multiflorum
Source text: as §3

STEME [1] = assay: greenhouse pre-emergence herbicidal activity, STEME; format: in vivo, Stellaria media
Source text: as §2

STEME [2] = assay: greenhouse post-emergence herbicidal activity, STEME; format: in vivo, Stellaria media
Method: as §1

AVEFA = assay: greenhouse pre-emergence herbicidal activity, AVEFA; format: in vivo, Avena fatua
Source text: as §3

[3] = Example 6, compound (I) 15.63 g/ha a.s. alone
[4] = Example 2, compound (I) 62.5 g/ha a.s. alone
[5] = Example 1, compound (I) 15.625 g/ha a.s. alone
[6] = Example 3, compound (I) 31.25 g/ha a.s. alone
[7] = Example 7, compound (I) 15.63 g/ha a.s. alone
[8] = Example 8, compound (I) 7.81 g/ha a.s. alone
[9] = Example 6, trifludimoxazin 0.5 g/ha a.s. alone
[10] = Example 2, trifludimoxazin 4.5 g/ha a.s. alone
[11] = Example 1, trifludimoxazin 9 g/ha a.s. alone
[12] = Example 3, trifludimoxazin 4.5 g/ha a.s. alone
[13] = Example 7, trifludimoxazin 0.25 g/ha a.s. alone
[14] = Example 8, trifludimoxazin 0.25 g/ha a.s. alone

CC1(C)CON(Cc2ccc(Cl)cc2Cl)C1=O [(I), 2-(2,4-dichlorophenyl)methyl-4,4-dimethyl-3-isoxazolidone]
herbicidal activity against IPOHE found (IPOHE; [3]): 53% | herbicidal activity against MATIN found (MATIN; [4]): 50% | herbicidal activity against GERDI found (GERDI; [5]): 20% | herbicidal activity against GERDI found (GERDI; [6]): 35% | herbicidal activity against GERDI found (GERDI; Example 5, compound (I) 15.625 g/ha a.s. alone): 20% | herbicidal activity against ALOMY found (ALOMY; [5]): 0% | herbicidal activity against LAMPU found (LAMPU; [6]): 0% | herbicidal activity against POLCO found (POLCO; [7]): 60% | herbicidal activity against POLCO found (POLCO; [8]): 50% | herbicidal activity against POLCO found (POLCO; Example 10, compound (I) 62.5 g/ha a.s. alone): 73% | herbicidal activity against GALAP found (GALAP; Example 9, compound (I) 15.63 g/ha a.s. alone): 73% | herbicidal activity against LOLMU found (LOLMU; Example 4, compound (I) 125 g/ha a.s. alone): 65% | herbicidal activity against STEME found (STEME [1]; [7]): 83% | herbicidal activity against STEME found (STEME [1]; [8]): 85% | herbicidal activity against STEME found (STEME [2]; [3]): 83% | herbicidal activity against AVEFA found (AVEFA; [4]): 0%

C#CCN1C(=O)C(F)(F)Oc2cc(F)c(-n3c(=O)n(C)c(=S)n(C)c3=O)cc21 [trifludimoxazin, 1,5-dimethyl-6-thioxo-3-(2,2,7-trifluoro-3-oxo-4-(prop-2-ynyl)-3,4-dihydro-2H-benzo[b][1,4]oxazin-6-yl)-1,3,5-triazinane-2,4-dione]
herbicidal activity against IPOHE found (IPOHE; [9]): 97% | herbicidal activity against MATIN found (MATIN; [10]): 90% | herbicidal activity against GERDI found (GERDI; [11]): 75% | herbicidal activity against GERDI found (GERDI; [12]): 0% | herbicidal activity against GERDI found (GERDI; Example 5, trifludimoxazin 4.5 g/ha a.s. alone): 0% | herbicidal activity against ALOMY found (ALOMY; [11]): 60% | herbicidal activity against LAMPU found (LAMPU; [12]): 98% | herbicidal activity against POLCO found (POLCO; [13]): 88% | herbicidal activity against POLCO found (POLCO; [14]): 88% | herbicidal activity against POLCO found (POLCO; Example 10, trifludimoxazin 0.25 g/ha a.s. alone): 88% | herbicidal activity against GALAP found (GALAP; Example 9, trifludimoxazin 2 g/ha a.s. alone): 93% | herbicidal activity against LOLMU found (LOLMU; Example 4, trifludimoxazin 9 g/ha a.s. alone): 65% | herbicidal activity against STEME found (STEME [1]; [13]): 80% | herbicidal activity against STEME found (STEME [1]; [14]): 80% | herbicidal activity against STEME found (STEME [2]; [9]): 90% | herbicidal activity against AVEFA found (AVEFA; [10]): 35%
